Tests used:
Test in all cases: relative viability (nuclei count vs DMSO), 5 days (fraction); higher = more cells survive
[1] = compound: C[C@@H](N)c1ccc(C(=O)Nc2ccnc3[nH]ccc23)cc1 + Nc1nc2[nH]cc(CCc3ccc(C(=O)N[C@@H](CCC(=O)O)C(=O)O)cc3)c2c(=O)[nH]1 [Pemetrexed] (partner 0.2 µM)
Summary of the method: (§1)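 Nuclei were stained with Hoechst during a one-step fixation (final 0.05% Triton X-100, 1% formaldehyde, 1 ug/ml Hoechst) carried out 5 days after dosing, then counted on 4× images. The cells, lung cancer lines in 1536-well plates, had been dosed by pin tool the day after seeding with one drug alone or a fixed anchor-drug dose plus five library-drug doses (not always all listed) in √10 steps. Relative viability is the nuclei count in treated wells divided by that in vehicle wells, and each value is the median of duplicate plates.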

[2] = compound: C1CNCCC1C2=CC(=NN2)C3=CC=NC=C3 + CCNC(=O)c1noc(-c2cc(C(C)C)c(O)cc2O)c1-c1ccc(CN2CCOCC2)cc1 [Luminespib] (partner 0.01 µM)
Summary of the method: as §1

Tanzisertib + Pemetrexed = compound: O[C@H]1CC[C@H](Nc2ncc3nc(Nc4c(F)cc(F)cc4F)n([C@H]4CCOC4)c3n2)CC1 [Tanzisertib] + Nc1nc2[nH]cc(CCc3ccc(C(=O)N[C@@H](CCC(=O)O)C(=O)O)cc3)c2c(=O)[nH]1 [Pemetrexed] (partner 0.2 µM)
Summary of the method: as §1

[3] = compound: C[C@@H](N)c1ccc(C(=O)Nc2ccnc3[nH]ccc23)cc1 + COc1cc2c(Oc3ccc(NC(=O)C4(C(=O)Nc5ccc(F)cc5)CC4)cc3F)ccnc2cc1OCCCN1CCOCC1 [Foretinib] (partner 0.25 µM)
Summary of the method: as §1

UMC-11
relative viability ([1]; first compound 0.04 µM): 0.915
relative viability ([1]; first compound 0.1265 µM): 0.889
relative viability ([1]; first compound 0.4 µM): 0.955
relative viability ([1]; first compound 1.265 µM): 0.764
relative viability ([1]; first compound 4 µM): 0.498
relative viability ([2]; first compound 0.08 µM): 0.959
relative viability ([2]; first compound 0.8 µM): 1.19
relative viability ([2]; first compound 2.53 µM): 1.05
relative viability ([2]; first compound 8 µM): 1.14
relative viability (Tanzisertib + Pemetrexed; first compound 0.08 µM): 0.801
relative viability (Tanzisertib + Pemetrexed; first compound 0.253 µM): 0.793
relative viability (Tanzisertib + Pemetrexed; first compound 0.8 µM): 0.784
relative viability (Tanzisertib + Pemetrexed; first compound 2.53 µM): 0.816
relative viability (Tanzisertib + Pemetrexed; first compound 8 µM): 0.833
relative viability ([3]; first compound 0.04 µM): 1.14
relative viability ([3]; first compound 0.1265 µM): 1.1
relative viability ([3]; first compound 0.4 µM): 1.12
relative viability ([3]; first compound 1.265 µM): 1
relative viability ([3]; first compound 4 µM): 0.694
